# According to patent publication USRE37781E1, “Substituted cyclic carbonyls and derivatives thereof useful as retroviral protease inhibitors” (DuPont Pharmaceuticals Company, priority 1991, dated 2002):
# Where two headings read alike, the source gives them in different places.
# Legend:
# HIV-1 (RF) in MT-2 cells = assay: microbe, parasite or virus in culture; assay type: cell-based; details: Table 2d, HIV RNA assay
# Procedure: DNA Plasmids and in vitro RNA transcripts:
# Plasmid pDAB 72 containing both gag and pol sequences of BH10 (bp 113-1816) cloned into PTZ 19R was prepared according to Erickson-Viitanen et al. AIDS Research and Human Retroviruses 1989, 5, 577. The plasmid was linearized with Bam HI prior to the generation of in vitro RNA transcripts using the Riboprobe Gemini system II kit (Promega) with T7 RNA polymerase. Synthesized RNA was purified by treatment with RNase free DNAse (Promega), phenol-chloroform extraction, and ethanol precipitation. RNA transcripts were dissolved in water, and stored at −70° C. The concentration of RNA was determined from the A260.
# Biotinylated capture probes were purified by HPLC after synthesis on an Applied Biosystems (Foster City, Calif.) DNA synthesizer by addition of biotin to the 5′ terminal end of the oligonucleotide, using the biotin-phosphoramidite reagent of Cocuzza, Tet. Lett. 1989, 30, 6287. The gag biotinylated capture probe (5-biotin-[…] 3′) was complementary to nucleotides 889-912 of HXB2 and the pol biotinylated capture probe (5′-biotin-[…] 3′) was complementary to nucleotides 2374-2395 of HXB2. Alkaline phosphatase conjugated oligonucleotides used as reporter probes were prepared by Syngene (San Diego, Calif.). The pol reporter probe (5′ […] 3′) was complementary to nucleotides 2403-2425 of HXB2. The gag reporter probe (5′ […] 3′) was complementary to nucleotides 950-973 of HXB2. All nucleotide positions are those of the GenBank Genetic Sequence Data Bank as accessed through the Genetics Computer Group Sequence Analysis Software Package (Devereau Nucleic Acids Research 1984, 12, 387). The reporter probes were prepared as 0.5μM stocks in 2× SSC (0.3M NaCl, 0.03M sodium citrate), 0.05M Tris pH 8.8, 1 mg/mL BSA. The biotinylated capture probes were prepared as 10 μM stocks in water.
# Streptavidin coated plates:
# Nunc-immunomodule microtiter plate strips were coated by addition of 200 μL of streptavidin (30 ug/mL, Scripps, La Jolla, Calif.) in freshly prepared 10 mM sodium carbonate (pH 9.6). Plates were incubated overnight at 4° C. Streptavidin solution was aspirated from the wells and a blocking buffer composed of phosphate buffered saline (PBS), 20 mg/mL bovine serum albumin (crystalline, nuclease and protease free, Calbiochem) and 100 mg/mL lactose (Sigma) was added to the plates for 3 hrs at room temperature. Blocking buffer was removed from the wells, which were allowed to dry overnight at room temperature and subsequently stored at 4° C. in zip lock bags with desiccant. For the majority of the compound evaluation experiments, streptavidin coated plates were obtained from Du Pont Biotechnology Systems (Boston, Mass.).
# MT-2, CEM, and H9 cells were maintained in RPMI 1640 supplemented with 5% fetal calf serum (FCS), 2 mM L-glutamine and 50 μg/mL gentamycin, all from Gibco. Laboratory strains of HIV-1 (RF, MN and IIIB) were propagated in H9 cells in the same medium. Virus stocks were prepared approximately 1 month after acute infection of H9 cells by clarification of the tissue culture medium and storage of aliquots at −70° C. […] Each aliquot of virus stock used for infection was thawed only once. In some cases, infected H9 cells were shifted to Dulbecco's modified Eagle's medium 3-10 days before collection of virus in order to generate virus stocks in medium with low biotin content. Clinical isolates of HIV that had been passaged once in MT-2 cells were used to infect fresh MT-2 cells in RPMI medium. Three days after infection, cells were pelleted, resuspended and culture continued in Dulbecco's modified Eagle's medium as above. Virus stocks of clinical isolates were prepaid 10-15 days after infection when cytopathic effects were apparent in the culture.
# [1] = target: single-chain tethered dimer of HIV protease (Human immunodeficiency virus 1, UniProt P04585); assay: biochemical; assay type: biochemical; design: fused on or other part: A second copy of the same protease unit is joined to the first by a short peptide tether, giving one polypeptide
# [2] = Table 2d; HIV protease inhibition, HPLC method; read-out: HPLC K1
# [3] = Human immunodeficiency virus 1, MT2, 48 h, read-out: IC90
# [4] = read-out: HPLC K1; Table 2d; HIV protease inhibition, HPLC method
SMILES,IC90 (HIV-1 (RF) in MT-2 cells),"Ki [1, 2] [nM]",IC90 (HIV-1 (RF) in MT-2 cells; [3]) [µg/mL],"Ki [1, 4] [nM]"
O=C1N(Cc2cccc(O)c2)C(Cc2ccccc2)C(O)C(O)C(Cc2ccccc2)N1Cc1ccc2[nH]nnc2c1 (centres unmarked) [15DR],+++ (+++=<10 μg/mL),< 10,–,–
N#CCc1cccc(CN2C(=O)N(Cc3cccc(CC#N)c3)C(Cc3ccccc3)C(O)C(O)C2Cc2ccccc2)c1 (centres unmarked) [15DU],–,–,< 10,10 to 1000
NC(=O)Cc1cccc(CN2C(=O)N(Cc3cccc(CC(N)=O)c3)C(Cc3ccccc3)C(O)C(O)C2Cc2ccccc2)c1 (centres unmarked) [15DV],–,–,< 10,< 10
COC(=O)Cc1cccc(CN2C(=O)N(Cc3cccc(CC(=O)OC)c3)C(Cc3ccccc3)C(O)C(O)C2Cc2ccccc2)c1 (centres unmarked) [15DW],+++ (+++=<10 μg/mL),< 10,–,–
O=C1N(Cc2cccc(CCO)c2)C(Cc2ccccc2)C(O)C(O)C(Cc2ccccc2)N1Cc1cccc(CCO)c1 (centres unmarked) [15DX],+++ (+++=<10 μg/mL),< 10,–,–
O=C1N(Cc2ccc(CO)cc2)C(Cc2ccccc2)C(O)C(O)C(Cc2ccccc2)N1Cc1ccccc1O (centres unmarked) [15EA],–,–,< 10,< 10
O=C1N(Cc2cccc(CO)c2)C(Cc2ccccc2)C(O)C(O)C(Cc2ccccc2)N1Cc1ccccc1O (centres unmarked) [15EB],+++ (+++=<10 μg/mL),10 to 1000,–,–
N#Cc1cc(CN2C(=O)N(Cc3ccc(F)c(C#N)c3)C(Cc3ccccc3)C(O)C(O)C2Cc2ccccc2)ccc1F (centres unmarked) [15EC],–,–,< 10,10 to 1000
NC(=O)c1cc(CN2C(=O)N(Cc3ccc(F)c(C(N)=O)c3)C(Cc3ccccc3)C(O)C(O)C2Cc2ccccc2)ccc1F (centres unmarked) [15ED],++ (++=10 to 100 μg/mL),< 10,–,–
COC(=O)c1cc(CN2C(=O)N(Cc3ccc(F)c(C(=O)OC)c3)C(Cc3ccccc3)C(O)C(O)C2Cc2ccccc2)ccc1F (centres unmarked) [15EE],+ (+=>100 μg/mL),< 10,–,–
NC(=NO)c1cc(CN2C(=O)N(Cc3ccc(F)c(C(N)=NO)c3)C(Cc3ccccc3)C(O)C(O)C2Cc2ccccc2)ccc1F (centres unmarked) [15EF],+++ (+++=<10 μg/mL),< 10,–,–
O=C1N(Cc2ccc(F)c(CO)c2)C(Cc2ccccc2)C(O)C(O)C(Cc2ccccc2)N1Cc1ccc(F)c(CO)c1 (centres unmarked) [15EG],+++ (+++=<10 μg/mL),< 10,–,–
NC(=O)c1cc(CN2C(=O)N(Cc3ccc(F)c(C(N)=NO)c3)C(Cc3ccccc3)C(O)C(O)C2Cc2ccccc2)ccc1F (centres unmarked) [15EH],+++ (+++=<10 μg/mL),< 10,–,–
CNC(=O)OCCCCCN1C(=O)N(CCCCCOC(=O)NC)C(Cc2ccccc2)C(O)C(O)C1Cc1ccccc1 (centres unmarked) [15EK],++ (++=10 to 100 μg/mL),10 to 1000,–,–
CC1(C)CCC(C)(C)c2cc(CN3C(=O)N(Cc4ccc5c(c4)C(C)(C)CCC5(C)C)C(Cc4ccccc4)C(O)C(O)C3Cc3ccccc3)ccc21 (centres unmarked) [15EL],++/+ (The ++/+ is used in the cases where an IC90 was determined to be >50 μg/mL),> 1000,–,–
[N-]=[N+]=NCCCCCN1C(=O)N(CCCCCN=[N+]=[N-])C(Cc2ccccc2)C(O)C(O)C1Cc1ccccc1 (centres unmarked) [15EM],–,–,< 10,10 to 1000
CS(=O)(=O)NCCCCCN1C(=O)N(CCCCCNS(C)(=O)=O)C(Cc2ccccc2)C(O)C(O)C1Cc1ccccc1 (centres unmarked) [15EN],++/+ (The ++/+ is used in the cases where an IC90 was determined to be >50 μg/mL),10 to 1000,–,–
NCCCCCN1C(=O)N(CCCCCN)C(Cc2ccccc2)C(O)C(O)C1Cc1ccccc1 (centres unmarked) [15EP],–,–,> 50,> 1000
COC(=O)NCCCCCN1C(=O)N(CCCCCNC(=O)OC)C(Cc2ccccc2)C(O)C(O)C1Cc1ccccc1 (centres unmarked) [15EQ],++/+ (The ++/+ is used in the cases where an IC90 was determined to be >50 μg/mL),10 to 1000,–,–
